Where “and” joins values, the source holds several entries; their conditions need not be identical. Equal entries are not always repeated.
What was measured:
[1] = target: D(2) dopamine receptor (Bos taurus) (UniProt P20288); assay: Inhibitor constant(Ki) for Dopamine receptor D2 calculated for high affinity(KH) component of [3H]spiperidol binding in the absence of GPP(NH)p pretreated with the compound at 100 nM
[2] = target: D(2) dopamine receptor (Bos taurus) (UniProt P20288); assay: Inhibitor constant(Ki) for Dopamine receptor D2 calculated for high affinity(KH) component of [3H]spiperidol binding in the presence of GPP(NH)p pretreated with the compound at 100 nM
[3] = target: D(2) dopamine receptor (Bos taurus) (UniProt P20288); assay: Percentage of Dopamine receptor D2 in the low affinity form(RL) for the agonist was determined in the absence of GPP(NH)p pretreated with the compound at 100 nM; assay type: functional
[4] = target: D(2) dopamine receptor (Bos taurus) (UniProt P20288); assay: Percentage of Dopamine receptor D2 in the low affinity form(RL) for the agonist was determined in the presence of GPP(NH)p pretreated with the compound at 100 nM; assay type: functional
[5] = target: D(2) dopamine receptor (Bos taurus) (UniProt P20288); assay: Inhibitor constant(Ki) for Dopamine receptor D2 calculated for low affinity(KL) component of [3H]spiperidol binding in the absence of GPP(NH)p pretreated with the compound at 100 nM
[6] = target: D(2) dopamine receptor (Bos taurus) (UniProt P20288); assay: Inhibitor constant(Ki) for Dopamine receptor D2 calculated for low affinity(KL) component of [3H]spiperidol binding in the presence of GPP(NH)p pretreated with the compound at 100 nM
[7] = target: D(2) dopamine receptor (Bos taurus) (UniProt P20288); assay: Percentage of Dopamine receptor D2 in the high affinity form(RH) for the agonist was determined in the absence of GPP(NH)p pretreated with the compound at 100 nM; assay type: functional
[8] = target: D(2) dopamine receptor (Bos taurus) (UniProt P20288); assay: Percentage of Dopamine receptor D2 in the high affinity form(RH) for the agonist was determined in the presence of GPP(NH)p pretreated with the compound at 100 nM; assay type: functional
[9] = Ratio of RH to RL was determined in the absence of GPP(NH)p pretreated with the compound at 100 nM
[10] = Ratio of RH to RL was determined in the presence of GPP(NH)p pretreated with the compound at 100 nM
[11] = target: D(2) dopamine receptor (Bos taurus) (UniProt P20288); assay: Inhibitor constant(Ki) for Dopamine receptor D2 calculated for […] component of [3H]-spiperidol binding in the absence of GPP(NH)p pretreated with the compound at 100 nM
Rattus norvegicus [12] = assay: Maximal increase in rotations at a dose of 1 mg/kg, ip in 6-hydroxydopamine-lesioned rat model of hemi-parkinsonism.; assay type: functional; conditions: route intraperitoneal
Rattus norvegicus [13] = assay: Maximal increase in rotations at a dose of 0.1 ug/kg, ip in 6-hydroxydopamine-lesioned rat model of hemi-parkinsonism.; assay type: functional
Rattus norvegicus [14] = assay: Maximal increase in rotations at a dose of 1 ug/kg, ip in 6-hydroxydopamine-lesioned rat model of hemi-parkinsonism.; assay type: functional
Rattus norvegicus [15] = assay: Maximal increase in rotations at a dose of 10 ug/kg, ip in 6-hydroxydopamine-lesioned rat model of hemi-parkinsonism.; assay type: functional

Sequence of D(2) dopamine receptor (Bos taurus) (P20288 whole entry): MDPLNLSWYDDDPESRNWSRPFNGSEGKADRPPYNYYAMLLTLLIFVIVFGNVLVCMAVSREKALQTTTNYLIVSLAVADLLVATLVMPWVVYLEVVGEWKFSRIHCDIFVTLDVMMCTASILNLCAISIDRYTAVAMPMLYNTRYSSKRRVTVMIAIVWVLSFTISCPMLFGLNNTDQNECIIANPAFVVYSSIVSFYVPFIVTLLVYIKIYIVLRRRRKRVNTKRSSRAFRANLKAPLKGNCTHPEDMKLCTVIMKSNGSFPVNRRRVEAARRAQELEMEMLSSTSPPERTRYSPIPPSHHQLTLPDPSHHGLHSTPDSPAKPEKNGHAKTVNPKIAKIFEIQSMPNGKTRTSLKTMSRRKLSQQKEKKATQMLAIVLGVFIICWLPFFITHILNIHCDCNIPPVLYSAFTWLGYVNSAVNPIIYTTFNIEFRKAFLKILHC

Compound	KH [1]	KH [2] [nM]	RL [3] [%]	RL [4] [%]	KL [5] [nM]	KL [6] [nM]	RH [7] [%]	RH [8] [%]	Ratio [9]	Ratio [10]	also measured
NC(=O)[C@H]1CCCN1C(=O)[C@@H]1CCCN1C(=O)[C@@H]1CCCN1	0.086 nM	0.054	29	33	153	140	71	67	2.45	2.03	–
C[C@@H]1CCN(C(=O)[C@@H]2CCCN2)[C@@H]1C(=O)N1CCC[C@H]1C(N)=O	0.052 nM and 52%	0.087	48	46	–	–	–	54	1.08	1.17	KL [2]: 106 nM; KL [11]: 98 nM
CC(C)CC(NC(=O)[C@@H]1CCCN1)C(=O)NCC(N)=O (single isomer, unassigned)	–	–	–	–	–	–	–	–	–	–	Increase (Rattus norvegicus [12]): 30%
CC(C)C[C@H](NC(=O)[C@@H]1CCCN1)C(=O)N1CCCC1C(N)=O (single isomer, unassigned)	–	–	–	–	–	–	–	–	–	–	Increase (Rattus norvegicus [13]): 30%
CC(C)C[C@H](NC(=O)[C@@H]1CCCN1)C(=O)N1CCC[C@@H]1C(N)=O	–	–	–	–	–	–	–	–	–	–	Increase (Rattus norvegicus [14]): 26%
NC(=O)[C@@H]1CCCN1C(=O)[C@@H]1CCCN1C(=O)[C@@H]1CCCN1	0.05 nM	0.089	27	46	110	88	73	54	2.7	1.17	Increase (Rattus norvegicus [15]): 47%

Reference: ChEMBL document CHEMBL1131839, “Synthesis and dopamine receptor modulating activity of unsubstituted and substituted triproline analogues of L-prolyl-L-leucyl-glycinamide (PLG)” (1999)
